Assay results: the NIST ThermoML archive (doi:10.1016/j.jct.2014.05.014)

Experiment: cn = amount concentration of the nth substance listed, in mol/dm3
Conditions: 101.3 kPa, Liquid; for electrical conductivity: Alternating current cell with electrodes; for viscosity: Falling or rolling sphere viscometry; for mass density: Vibrating tube method

CC(N)C(=O)[O-].[K+] (stereo not drawn) [potassium DL-alaninate] + O
Conditions | electrical conductivity [S/m] | mass density [kg/m3] | viscosity [mPa·s]
303.15 K, c1 = 0.495 | – | 1024.1 | –
303.15 K, c1 = 0.514 | – | – | 0.942
303.15 K, c1 = 0.526 | 3.96 | – | –
303.15 K, c1 = 1.009 | 6.63 | – | –
303.15 K, c1 = 1.014 | – | 1051.7 | –
303.15 K, c1 = 1.029 | – | – | 1.118
303.15 K, c1 = 1.499 | 8.42 | – | –
303.15 K, c1 = 1.509 | – | 1078.7 | –
303.15 K, c1 = 1.524 | – | – | 1.342
303.15 K, c1 = 1.954 | – | 1103.2 | –
303.15 K, c1 = 1.999 | – | – | 1.6
303.15 K, c1 = 2.018 | 9.49 | – | –
303.15 K, c1 = 2.501 | 9.88 | – | –
303.15 K, c1 = 2.507 | – | 1131.4 | –
303.15 K, c1 = 2.522 | – | – | 1.964
303.15 K, c1 = 2.988 | – | 1155.8 | –
303.15 K, c1 = 3.046 | 9.87 | – | –
303.15 K, c1 = 3.048 | – | – | 2.422
303.15 K, c1 = 3.497 | 9.58 | – | –
303.15 K, c1 = 3.499 | – | 1181 | –
308.15 K, c1 = 0.495 | – | 1022.4 | –
308.15 K, c1 = 0.514 | – | – | 0.845
308.15 K, c1 = 0.526 | 4.34 | – | –
308.15 K, c1 = 1.009 | 7.25 | – | –
308.15 K, c1 = 1.014 | – | 1049.8 | –
308.15 K, c1 = 1.029 | – | – | 1.009
308.15 K, c1 = 1.499 | 9.18 | – | –
308.15 K, c1 = 1.509 | – | 1076.7 | –
308.15 K, c1 = 1.524 | – | – | 1.203
308.15 K, c1 = 1.954 | – | 1101.1 | –
308.15 K, c1 = 1.999 | – | – | 1.429
308.15 K, c1 = 2.018 | 10.4 | – | –
308.15 K, c1 = 2.501 | 10.8 | – | –
308.15 K, c1 = 2.507 | – | 1129.2 | –
308.15 K, c1 = 2.522 | – | – | 1.745
308.15 K, c1 = 2.988 | – | 1153.4 | –
308.15 K, c1 = 3.046 | 10.9 | – | –
308.15 K, c1 = 3.048 | – | – | 2.135
308.15 K, c1 = 3.497 | 10.6 | – | –
308.15 K, c1 = 3.499 | – | 1178.4 | –
313.15 K, c1 = 0.495 | – | 1020.5 | –
313.15 K, c1 = 0.514 | – | – | 0.769
313.15 K, c1 = 0.526 | 4.73 | – | –
313.15 K, c1 = 1.009 | 7.84 | – | –
313.15 K, c1 = 1.014 | – | 1047.7 | –
313.15 K, c1 = 1.029 | – | – | 0.909
313.15 K, c1 = 1.499 | 9.94 | – | –
313.15 K, c1 = 1.509 | – | 1074.5 | –
313.15 K, c1 = 1.524 | – | – | 1.093
313.15 K, c1 = 1.954 | – | 1098.8 | –
313.15 K, c1 = 1.999 | – | – | 1.29
313.15 K, c1 = 2.018 | 11.2 | – | –
313.15 K, c1 = 2.501 | 11.8 | – | –
313.15 K, c1 = 2.507 | – | 1126.8 | –
313.15 K, c1 = 2.522 | – | – | 1.569
313.15 K, c1 = 2.988 | – | 1150.9 | –
313.15 K, c1 = 3.046 | 11.8 | – | –
313.15 K, c1 = 3.048 | – | – | 1.907
313.15 K, c1 = 3.497 | 11.6 | – | –
313.15 K, c1 = 3.499 | – | 1175.8 | –
318.15 K, c1 = 0.495 | – | 1018.4 | –
318.15 K, c1 = 0.514 | – | – | 0.705
318.15 K, c1 = 0.526 | 5.12 | – | –
318.15 K, c1 = 1.009 | 8.45 | – | –
318.15 K, c1 = 1.014 | – | 1045.6 | –
318.15 K, c1 = 1.029 | – | – | 0.83
318.15 K, c1 = 1.499 | 10.7 | – | –
318.15 K, c1 = 1.509 | – | 1072.3 | –
318.15 K, c1 = 1.524 | – | – | 1
318.15 K, c1 = 1.954 | – | 1096.5 | –
318.15 K, c1 = 1.999 | – | – | 1.17
318.15 K, c1 = 2.018 | 12.1 | – | –
318.15 K, c1 = 2.501 | 12.7 | – | –
318.15 K, c1 = 2.507 | – | 1124.3 | –
318.15 K, c1 = 2.522 | – | – | 1.426
318.15 K, c1 = 2.988 | – | 1148.3 | –
318.15 K, c1 = 3.046 | 12.8 | – | –
318.15 K, c1 = 3.048 | – | – | 1.712
318.15 K, c1 = 3.497 | 12.6 | – | –
318.15 K, c1 = 3.499 | – | 1173.1 | –
323.15 K, c1 = 0.495 | – | 1016.2 | –
323.15 K, c1 = 0.514 | – | – | 0.644
323.15 K, c1 = 0.526 | 5.5 | – | –
323.15 K, c1 = 1.009 | 9.06 | – | –
323.15 K, c1 = 1.014 | – | 1043.4 | –
323.15 K, c1 = 1.029 | – | – | 0.76
323.15 K, c1 = 1.499 | 11.5 | – | –
323.15 K, c1 = 1.509 | – | 1069.9 | –
323.15 K, c1 = 1.524 | – | – | 0.922
323.15 K, c1 = 1.954 | – | 1094.2 | –
323.15 K, c1 = 1.999 | – | – | 1.069
323.15 K, c1 = 2.018 | 12.9 | – | –
323.15 K, c1 = 2.501 | 13.7 | – | –
323.15 K, c1 = 2.507 | – | 1121.8 | –
323.15 K, c1 = 2.522 | – | – | 1.301
323.15 K, c1 = 2.988 | – | 1145.7 | –
323.15 K, c1 = 3.046 | 13.9 | – | –
323.15 K, c1 = 3.048 | – | – | 1.549
323.15 K, c1 = 3.497 | 13.7 | – | –
323.15 K, c1 = 3.499 | – | 1170.3 | –
328.15 K, c1 = 0.495 | – | 1013.9 | –
328.15 K, c1 = 0.514 | – | – | 0.596
328.15 K, c1 = 0.526 | 5.89 | – | –
328.15 K, c1 = 1.009 | 9.68 | – | –
328.15 K, c1 = 1.014 | – | 1041 | –
328.15 K, c1 = 1.029 | – | – | 0.703
328.15 K, c1 = 1.499 | 12.2 | – | –
328.15 K, c1 = 1.509 | – | 1067.4 | –
328.15 K, c1 = 1.524 | – | – | 0.854
328.15 K, c1 = 1.954 | – | 1091.5 | –
328.15 K, c1 = 1.999 | – | – | 0.985
328.15 K, c1 = 2.018 | 13.8 | – | –
328.15 K, c1 = 2.501 | 14.6 | – | –
328.15 K, c1 = 2.507 | – | 1119 | –
328.15 K, c1 = 2.522 | – | – | 1.201
328.15 K, c1 = 2.988 | – | 1143 | –
328.15 K, c1 = 3.046 | 14.9 | – | –
328.15 K, c1 = 3.048 | – | – | 1.413
328.15 K, c1 = 3.497 | 14.7 | – | –
328.15 K, c1 = 3.499 | – | 1167.5 | –
333.15 K, c1 = 0.495 | – | 1011.5 | –
333.15 K, c1 = 0.514 | – | – | 0.547
333.15 K, c1 = 0.526 | 6.27 | – | –
333.15 K, c1 = 1.009 | 10.3 | – | –
333.15 K, c1 = 1.014 | – | 1038.5 | –
333.15 K, c1 = 1.029 | – | – | 0.649
333.15 K, c1 = 1.499 | 13 | – | –
333.15 K, c1 = 1.509 | – | 1064.9 | –
333.15 K, c1 = 1.524 | – | – | 0.799
333.15 K, c1 = 1.954 | – | 1088.8 | –
333.15 K, c1 = 1.999 | – | – | 0.902
333.15 K, c1 = 2.018 | 14.6 | – | –
333.15 K, c1 = 2.501 | 15.5 | – | –
333.15 K, c1 = 2.507 | – | 1116.3 | –
333.15 K, c1 = 2.522 | – | – | 1.104
333.15 K, c1 = 2.988 | – | 1140.2 | –
333.15 K, c1 = 3.046 | 15.8 | – | –
333.15 K, c1 = 3.048 | – | – | 1.286
333.15 K, c1 = 3.497 | 15.7 | – | –
333.15 K, c1 = 3.499 | – | 1164.6 | –
338.15 K, c1 = 0.495 | – | 1008.9 | –
338.15 K, c1 = 0.514 | – | – | 0.507
338.15 K, c1 = 0.526 | 6.64 | – | –
338.15 K, c1 = 1.009 | 10.8 | – | –
338.15 K, c1 = 1.014 | – | 1035.9 | –
338.15 K, c1 = 1.029 | – | – | 0.602
338.15 K, c1 = 1.499 | 13.8 | – | –
338.15 K, c1 = 1.509 | – | 1062.1 | –
338.15 K, c1 = 1.524 | – | – | 0.742
338.15 K, c1 = 1.954 | – | 1086.1 | –
338.15 K, c1 = 1.999 | – | – | 0.83
338.15 K, c1 = 2.018 | 15.5 | – | –
338.15 K, c1 = 2.501 | 16.4 | – | –
338.15 K, c1 = 2.507 | – | 1113.5 | –
338.15 K, c1 = 2.522 | – | – | 1.015
338.15 K, c1 = 2.988 | – | 1137.3 | –
338.15 K, c1 = 3.046 | 16.8 | – | –
338.15 K, c1 = 3.048 | – | – | 1.176
338.15 K, c1 = 3.497 | 16.7 | – | –
338.15 K, c1 = 3.499 | – | 1161.6 | –
343.15 K, c1 = 0.495 | – | 1006.3 | –
343.15 K, c1 = 0.514 | – | – | 0.475
343.15 K, c1 = 0.526 | 7.02 | – | –
343.15 K, c1 = 1.009 | 11.4 | – | –
343.15 K, c1 = 1.014 | – | 1033.1 | –
343.15 K, c1 = 1.029 | – | – | 0.563
343.15 K, c1 = 1.499 | 14.5 | – | –
343.15 K, c1 = 1.509 | – | 1059.4 | –
343.15 K, c1 = 1.524 | – | – | 0.693
343.15 K, c1 = 1.954 | – | 1083.4 | –
343.15 K, c1 = 1.999 | – | – | 0.77
343.15 K, c1 = 2.018 | 16.3 | – | –
343.15 K, c1 = 2.501 | 17.4 | – | –
343.15 K, c1 = 2.507 | – | 1110.5 | –
343.15 K, c1 = 2.522 | – | – | 0.94
343.15 K, c1 = 2.988 | – | 1134.4 | –
343.15 K, c1 = 3.046 | 17.8 | – | –
343.15 K, c1 = 3.048 | – | – | 1.087
343.15 K, c1 = 3.497 | 17.7 | – | –
343.15 K, c1 = 3.499 | – | 1158.6 | –
